Measured values: EP2949220A1, “Nutraceutic supplement for bees families and process for its administration” (SC Teso Spec SRL, priority 2014, dated 2015)

Tests used:
[1] = system: lipid peroxides (as malondialdehide); assay: Oxidative stress in midguts of bees fed bee candy (lipid peroxides as MDA, thiobarbituric acid); format: in vivo, honey bees; settings: 3 days, control = 100%, 4.3 µg/g maltol, 0.41 µg/g p-coumaric acid, 0.45 µg/g caffeic acid where present (mixture row prints µg/l)
Procedure: (§1) Optimization of the ratio of hydroxycinnamic acids, p-coumaric and caffeic, and maltol, was obtained by using experiments designed according to response surface technique, using the Software Design-Expert® v. 9.0 (Stat-Ease, Minneapolis, MN, USA). Two bioassays were used, wherein the effect of different combinations of maltol and hydroxycinnamic acids, p-coumaric and caffeic, were determined, on fructophilic lactobacteria growth and on oxidative stress and on the induction of CYP9Q, enzyme from cytochrome P450 monooxigenase class, with key role in defense systems of bees (Mao et al., 2013, PNAS, 110: 8842-8846). […] After three days bees midguts were taken by dissection, frozen in liquid nitrogen and stored at -80 ° C, to extract total RNA for quantitative RT-PCR analysis of CYP9Q3 expression and for the determination of lipid peroxides (as malondialdehide) as markers of oxidative stress. RNA was extracted from frozen abdomens by TRIzol method (Invitrogen, Thermo Fisher Scientific, Waltham, MA, USA), treated with DNAse (Ambion® protocol, Thermo Fisher Scientific) and used for the quantitative analysis of the expression CYP9Q by RT-PCR, as described by Mao et al., 2011 (PNAS, 108, 12657-12662). Lipid peroxides were determined as malondialdehid ? , with tiobarbituric acid (Rael et al., 2004, J. Biochem. Mol. Biol, 3, 749-752).

CYP9Q = CYP9Q induction in bees fed bee candy (quantitative RT-PCR); format: in vivo, honey bees; settings: 3 days, control = 100%, 4.3 µg/g maltol, 0.41 µg/g p-coumaric acid, 0.45 µg/g caffeic acid where present (mixture row prints µg/l)
Procedure: as §1

[2] = system: Lactobacillus kunkeei DSM 12361; assay: Growth of fructophilic lactobacteria on FYP broth with glucose-fructose syrup; format: cell-based; settings: FYP medium with glucose-fructose syrup; 21.5 mg/l maltol, 2.05 mg/l p-coumaric acid, 2.25 mg/l caffeic acid where present
Procedure: Optimization of the ratio of hydroxycinnamic acids, p-coumaric and caffeic, and maltol, was obtained by using experiments designed according to response surface technique, using the Software Design-Expert® v. 9.0 (Stat-Ease, Minneapolis, MN, USA). Two bioassays were used, wherein the effect of different combinations of maltol and hydroxycinnamic acids, p-coumaric and caffeic, were determined, on fructophilic lactobacteria growth and on oxidative stress and on the induction of CYP9Q, enzyme from cytochrome P450 monooxigenase class, with key role in defense systems of bees (Mao et al., 2013, PNAS, 110: 8842-8846). […] The ratio 4.1 parts p-coumaric acid, 4.5 parts caffeic acid and 43 parts maltol, determined as being optimal in terms L. kunkeei development enhancement, was re-tested in laboratory conditions, using 400 g/l glucose-fructose syrup (Isosugar 031™, Tate and Lyle, London, United Kingdom, 74.8% dry matter, 50.2% of which is fructose), instead of 300 g/l of fructose on FYP broth. […]

Inducing CYP9Q (%) (CYP9Q): 102.9%
SMILES: Cc1occc(=O)c1O [maltol, 3-Hydroxy-2-methyl-4H-piran-4-one]
Oxidative stress MDA (%) [1]: 123,7%
Culture development (% control) [2]: 76.8 % control
Lactic acid production (% control) [2]: 67,9 % control
